# Source: patent US12187742B2 (XRAD Therapeutics, Inc., priority 2018, dated 2025)
# Where a name gives a salt, the structure may show the parent alone.
# Biological target: ATM (Homo sapiens (Human), UniProt Q13315)
# Assay: ATM in Cell Western Assay (pKAP1 in etoposide-treated MCF-7 cells)
# Format: cell-based
# Details: MCF-7 cells, etoposide 100 μM, 1 hr, pKAP1 readout
# Summary of the method: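 After paraformaldehyde fixation and Triton X-100 permeabilization, immunostained plates were read by infrared scanning (ODYSSEY CLx). Compound was given as 10 doses, 3-fold dilutions from a 1 μM final top concentration.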
# Chain of ATM (Q13315 whole entry): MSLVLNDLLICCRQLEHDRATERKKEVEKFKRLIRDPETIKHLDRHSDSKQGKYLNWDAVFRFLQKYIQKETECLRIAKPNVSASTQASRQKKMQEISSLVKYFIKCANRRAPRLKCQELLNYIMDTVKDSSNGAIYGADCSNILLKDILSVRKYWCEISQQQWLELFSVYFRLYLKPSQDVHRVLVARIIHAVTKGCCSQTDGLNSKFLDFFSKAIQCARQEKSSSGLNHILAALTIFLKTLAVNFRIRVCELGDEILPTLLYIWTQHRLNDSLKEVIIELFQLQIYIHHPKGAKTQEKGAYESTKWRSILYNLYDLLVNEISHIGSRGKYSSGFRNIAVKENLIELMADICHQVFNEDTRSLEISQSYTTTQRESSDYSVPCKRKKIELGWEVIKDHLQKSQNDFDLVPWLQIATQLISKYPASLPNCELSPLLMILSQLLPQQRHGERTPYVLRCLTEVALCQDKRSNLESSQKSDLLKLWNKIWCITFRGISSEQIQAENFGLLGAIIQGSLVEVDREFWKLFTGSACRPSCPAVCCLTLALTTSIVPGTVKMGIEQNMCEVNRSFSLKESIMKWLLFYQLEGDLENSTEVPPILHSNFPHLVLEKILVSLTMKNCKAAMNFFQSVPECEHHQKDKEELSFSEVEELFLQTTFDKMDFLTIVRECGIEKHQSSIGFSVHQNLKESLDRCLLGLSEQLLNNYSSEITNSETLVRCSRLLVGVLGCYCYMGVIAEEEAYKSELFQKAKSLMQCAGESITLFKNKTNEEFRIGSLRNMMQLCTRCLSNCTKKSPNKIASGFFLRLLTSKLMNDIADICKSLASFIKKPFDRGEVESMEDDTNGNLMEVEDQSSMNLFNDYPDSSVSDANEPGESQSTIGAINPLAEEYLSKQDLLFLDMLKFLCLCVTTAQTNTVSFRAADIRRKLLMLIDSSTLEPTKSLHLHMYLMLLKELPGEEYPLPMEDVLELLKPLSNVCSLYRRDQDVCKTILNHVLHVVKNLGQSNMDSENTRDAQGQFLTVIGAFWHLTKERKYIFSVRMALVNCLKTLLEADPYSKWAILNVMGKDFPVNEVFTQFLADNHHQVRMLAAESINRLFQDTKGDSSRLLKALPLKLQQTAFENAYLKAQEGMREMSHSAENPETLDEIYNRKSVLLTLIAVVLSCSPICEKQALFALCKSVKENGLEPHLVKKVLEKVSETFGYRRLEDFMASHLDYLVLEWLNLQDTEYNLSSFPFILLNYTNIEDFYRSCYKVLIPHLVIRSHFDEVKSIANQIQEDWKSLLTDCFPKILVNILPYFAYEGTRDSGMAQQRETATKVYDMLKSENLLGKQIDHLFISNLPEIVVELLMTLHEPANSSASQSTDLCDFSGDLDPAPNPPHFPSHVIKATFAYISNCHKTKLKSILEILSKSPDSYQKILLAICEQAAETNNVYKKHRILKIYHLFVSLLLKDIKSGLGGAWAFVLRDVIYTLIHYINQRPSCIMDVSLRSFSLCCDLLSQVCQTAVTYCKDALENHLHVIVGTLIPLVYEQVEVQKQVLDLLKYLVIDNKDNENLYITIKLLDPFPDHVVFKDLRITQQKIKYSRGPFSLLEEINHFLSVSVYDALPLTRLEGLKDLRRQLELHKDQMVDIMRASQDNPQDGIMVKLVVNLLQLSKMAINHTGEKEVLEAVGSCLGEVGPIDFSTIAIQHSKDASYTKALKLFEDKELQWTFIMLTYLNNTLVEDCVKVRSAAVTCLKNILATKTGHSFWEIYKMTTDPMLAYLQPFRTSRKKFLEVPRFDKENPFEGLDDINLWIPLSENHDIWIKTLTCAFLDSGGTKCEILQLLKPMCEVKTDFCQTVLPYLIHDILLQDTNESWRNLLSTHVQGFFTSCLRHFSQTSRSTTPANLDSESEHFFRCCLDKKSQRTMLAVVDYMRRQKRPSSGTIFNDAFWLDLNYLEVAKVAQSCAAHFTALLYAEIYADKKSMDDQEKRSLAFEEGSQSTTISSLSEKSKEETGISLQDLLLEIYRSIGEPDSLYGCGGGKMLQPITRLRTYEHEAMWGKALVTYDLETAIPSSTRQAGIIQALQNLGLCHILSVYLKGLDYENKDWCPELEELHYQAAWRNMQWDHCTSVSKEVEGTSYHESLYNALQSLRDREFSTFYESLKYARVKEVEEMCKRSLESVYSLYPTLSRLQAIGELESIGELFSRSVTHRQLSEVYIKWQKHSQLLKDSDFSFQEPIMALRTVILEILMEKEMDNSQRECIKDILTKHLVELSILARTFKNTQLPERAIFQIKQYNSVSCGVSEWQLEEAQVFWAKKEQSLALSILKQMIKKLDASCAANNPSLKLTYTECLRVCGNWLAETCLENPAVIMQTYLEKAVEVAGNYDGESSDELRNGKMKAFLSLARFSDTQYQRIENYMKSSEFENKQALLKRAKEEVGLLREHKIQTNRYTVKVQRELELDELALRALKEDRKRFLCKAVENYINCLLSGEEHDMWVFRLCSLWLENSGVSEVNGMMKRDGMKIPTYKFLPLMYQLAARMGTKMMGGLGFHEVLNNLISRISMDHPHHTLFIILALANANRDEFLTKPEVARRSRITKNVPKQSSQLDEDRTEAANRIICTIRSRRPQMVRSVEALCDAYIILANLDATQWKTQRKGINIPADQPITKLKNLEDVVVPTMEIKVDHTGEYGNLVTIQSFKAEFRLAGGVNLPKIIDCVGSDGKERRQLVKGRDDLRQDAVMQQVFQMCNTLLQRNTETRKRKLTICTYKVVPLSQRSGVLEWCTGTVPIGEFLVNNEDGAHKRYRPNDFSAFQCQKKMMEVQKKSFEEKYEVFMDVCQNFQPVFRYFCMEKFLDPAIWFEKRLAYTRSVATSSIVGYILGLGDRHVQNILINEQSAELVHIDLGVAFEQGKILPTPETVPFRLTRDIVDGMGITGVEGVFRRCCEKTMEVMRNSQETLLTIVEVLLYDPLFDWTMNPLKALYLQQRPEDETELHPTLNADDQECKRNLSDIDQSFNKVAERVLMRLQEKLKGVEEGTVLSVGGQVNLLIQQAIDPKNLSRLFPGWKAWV
row,IC50 [nM],SMILES
1,1 to 100,"CN(C)CCCOc1ncc(-c2ccc3ncc4c(c3c2)C2(CCC2)C(=O)N4C)cc1NS(=O)(=O)N(C)Cc1ccccc1 [Example 182, N-Benzyl-N-methyl({2-[3-(dimethylamino)propoxy]-5-{3′-methyl-2′-oxo-2′,3′-dihydrospiro[cyclobulane-1,1′-pyrrolo[2,3-c]quinoline]-8′-yl}pyridin-3-yl}amino)sulfonamide]"
2,1 to 100,"CCN1C(=O)C2(CCC2)c2c1cnc1ccc(-c3cnc(N4CC(N(C)C)C4)c(NS(C)(=O)=O)c3)cc21 [Example 336, N-(2-(3-(Dimethylamino)azetidin-1-yl)-5-(3′-ethyl-2′-oxo-2′,3′-dihydrospiro [cyclobutane-1,1′-pyrrolo[2,3-c]quinolin]-8′-yl)pyridin-3-yl) methanesulfonamide]"
3,> 100,"CN1C(=O)C2(CC2)c2c1cnc1ccc(-c3cccc4[nH]ncc34)cc21 [Example 50, 8′-(1H-indazol-4-yl)-3′-methylspiro[cyclopropane-1,1′-pyrrolo[2,3-c]quinolin]-2′(3′-H)-one]"
4,1 to 100,"COc1ncc(-c2ccc3ncc4c(c3c2)C2(CC2)C(=O)N4C)cc1NS(=O)(=O)c1cccc(C(C)O)c1 (stereo not shown) [Example 18, 3-(1-Hydroxyethyl)-N-(2-methoxy-5-(3′-methyl-2′-oxo-2′,3′-dihydrospiro[cyclopropane-1,1′-pyrrolo[2,3-c]quinolin]-8′-yl)pyridin-3-yl)benzenesulfonamide]"
5,1 to 100,"CN1C(=O)C2(CCC2)c2c1cnc1ccc(-c3cnc(N4CC(N5CCCCC5)C4)c(NS(C)(=O)=O)c3)cc21 [Example 321, N-(5-(3′-Methyl-2′-oxo-2′,3′-dihydrospiro[cyclobulane-1,1′-pyrrolo[2,3-c]quinolin]-8′-yl)-2-(3-(piperidin-1-yl)azetidin-1-yl)pyridin-3-yl)methanesulfonamide hydrochloride]"
6,1 to 100,"CN(C)c1ccc(-c2ncc(-c3ccc4ncc5c(c4c3)C3(CCC3)C(=O)N5C)cc2NS(C)(=O)=O)cn1 [Example 271, N-(6′-(Dimethylamino)-5-(3′-methyl-2′-oxo-2′,3′-dihydrospiro[cyclobutane-1,1′-pyrrolo[2,3-c]quinolin]-8′-yl)-[2,3′-bipyridin]-3-yl)methanesulfonamide]"
7,> 100,"CN(C)CCCOc1ncc(-c2ccc3ncc4c(c3c2)C2(CC2)C(=O)N4C)cc1Cl [Example 55, 8′-(5-Chloro-6-(3-(dimethylamino)propoxy)pyridin-3-yl)-3 methylspiro[cyclopropane-1,1′-pyrrolo[2,3-c]quinolin]-2′(3′-H)-one]"

# Further lines, the compound ahead of its results:
row,SMILES,IC50 [nM]
1,"CN1C(=O)C(C)(c2ccncc2)c2c1cnc1ccc(-c3cnc(Cl)c(NS(=O)(=O)c4ccccc4)c3)cc21 (stereo not shown) [Example 23, N-(2-Chloro-5-(1,3-dimethyl-2-oxo-1-(pyridin-4-yl)-2′,3′-dihydro-1H-pyrrolo[2,3-c]quinolin-8-yl)pyridin-3-yl)benzenesulfonamide]",> 100
2,"CN(C)CCCOc1ncc(-c2ccc3ncc4c(c3c2)C2(CCC2)C(=O)N4C)cc1NS(=O)(=O)N(C)C1CCNCC1 [Example 179, N-Methyl-N-(piperidin-4-yl)({2-[3-(dimethylamino)propoxy]-5-{3′-methyl-2′-oxo-2′,3′-dihydrospiro[cyclobutane-1,1′-pyrrolo[2,3-c]quinoline]-8-yl}pyridin-3-yl}amino)sulfonamide 2,2,2-trifluoroacetate]",1 to 100
3,"CN1C(=O)C2(CC2)c2c1cnc1ccc(-c3cnc(Cl)c(C(C)(C)O)c3)cc21 [Example 28, 8′-(6-Chloro-5-(2-hydroxypropan-2-yl)pyridin-3-yl)-3′-methylspiro[cyclopropane-1,1′-pyrrolo[2,3-c]quinolin]-2′(3′-H)-one]",> 100
4,"CN1C(=O)C2(CC2)c2c1cnc1ccc(-c3ccc4c(ccc(=O)n4C)c3)cc21 [Example 45, 3′-Methyl-8′-(1-methyl-2-oxo-1,2-dihydroquinolin-6-yl)spiro[cyclopropane-1,1′-pyrrolo[2,3-c]quinolin]-2′(3′-H)-one]",> 100

# Same assay, conditions: pKAP1 in etoposide-treated MCF-7 cells
row,IC50 [nM],SMILES
1,1 to 100,"CC(C)NCCOc1ncc(-c2cc3c4c(cnc3cc2F)N(C)C(=O)C42CN(C3CCCCC3)C2)cc1NS(C)(=O)=O [Example 499, N-(5-(1-Cyclohexyl-7′-fluoro-3′-methyl-2′-oxo-2′,3′-dihydrospiro[azetidine-3,1′-pyrrolo[2,3-c]quinolin]-8′-yl)-2-(2-(isopropylamino)ethoxy)pyridin-3-yl)methanesulfonamide]"
2,> 100,"CN1C(=O)C2(CCC2)c2c1cnc1ccc(-c3cnc(N4CC5CN(C(=O)OC(C)(C)C)CC5C4)c(NS(C)(=O)=O)c3)cc21 (stereo not shown) [Example 348, tert-Butyl 5-(5-(3′-methyl-2′-oxo-2′,3′-dihydrospiro [cyclobutane-1,1′-pyrrolo[2,3-c]quinolin]-8′-yl)-3-(methylsulfonamido)pyridin-2-yl) hexahydropyrrolo [3,4-c] pyrrole-2(1H)-carboxylate]"
3,1 to 100,"CC(C)NCCOc1ncc(-c2cc3c(cc2F)ncc2c3[C@]3(C[C@H](CN(C)C)C3)C(=O)N2C)cc1NS(C)(=O)=O [Example 452, cis-N-(5-(3-((Dimethylamino)methyl)-7′-fluoro-3′-methyl-2′-oxo-2′,3′-dihydrospiro[cyclobutane-1,1′-pyrrolo[2,3-c]quinolin]-8′-yl)-2-(2-(isopropylamino)ethoxy)pyridin-3-yl)methanesulfonamide]"
4,1 to 100,"CN(C)CCCOc1c(C#N)cc(-c2ccc3ncc4c(c3c2)C2(CCC2)C(=O)N4C)cc1NS(C)(=O)=O [Example 563, N-(3-Cyano-2-(3-(dimethylamino)propoxy)-5-(3′-methyl-2′-oxo-2′,3′-dihydrospiro[cyclobutane-1,1′-pyrrolo[2,3-c]quinolin]-8′-yl)phenyl)methanesulfonamide]"
5,1 to 100,"CC(C)NCCOc1ncc(-c2cc3c(cc2F)ncc2c3[C@]3(C[C@@H](Nc4ccc(Cl)cc4)C3)C(=O)N2C)cc1NS(C)(=O)=O [Example 462, trans-N-(5-(3-((4-Chlorophenyl)amino)-7′-fluoro-3′-methyl-2′-oxo-2′,3′-dihydrospiro[cyclobutane-1,1′-pyrrolo[2,3-c]quinolin]-8′-yl)-2-(2-(isopropylamino)ethoxy)pyridin-3-yl)methanesulfonamide]"

# Further lines, the compound ahead of its results:
row,SMILES,IC50 [nM]
1,"CC(C)NCCOc1ncc(-c2cc3c(cc2F)ncc2c3[C@]3(C[C@@H](COc4ccccc4)C3)C(=O)N2C)cc1NS(C)(=O)=O [Example 408, trans-N-(5-(7′-Fluoro-3′-methyl-2′-oxo-3-(phenoxymethyl)-2′,3′-dihydrospiro[cyclobulane-1,1′-pyrrolo[2,3-c]quinolin]-8′-yl)-2-(2-(isopropylamino)ethoxy)pyridin-3-yl)methanesulfonamide]",1 to 100
2,"CC(C)NCCOc1ncc(-c2cc3c(cc2F)ncc2c3[C@]3(C[C@H](c4ccc(F)cc4)C3)C(=O)N2C)cc1NS(C)(=O)=O [Example 422, cis-N-(5-(7′-Fluoro-3-(4-fluorophenyl)-3′-methyl-2′-oxo-2′,3′-dihydrospiro[cyclobutane-1,1′-pyrrolo[2,3-c]quinolin]-8′-yl)-2-(2-(isopropylamino)ethoxy)pyridin-3-yl)methanesulfonamide]",1 to 100
3,"CN(C)CCCOc1c(NS(C)(=O)=O)cc(-c2ccc3ncc4c(c3c2)C2(CCC2)C(=O)N4C)cc1C(=O)O [Example 399, 2-(3-(Dimethylamino)propoxy)-5-(3′-methyl-2′-oxo-2′,3′-dihydrospiro[cyclobutane-1,1′-pyrrolo[2,3-c]quinolin]-8′-yl)-3-(methylsulfonamido)benzoic acid]",> 100
4,"CC(C)NCCOc1ncc(-c2cc3c(cc2F)ncc2c3[C@]3(C[C@@H](N(C)C)C3)C(=O)N2C)cc1NS(C)(=O)=O [Example 466, trans-N-(5-{3-(Dimethylamino)-7′-fluoro-3′-methyl-2′-oxo-2′,3′-dihydrospiro[cyclobutane-1,1′-pyrrolo[2,3-c]quinolin]-8′-yl)-2-(2-(isopropylamino)ethoxy)pyridin-3-yl)methanesulfonamide]",1 to 100
5,"CC(C)NCCOc1ncc(-c2cc3c4c(cnc3cc2F)N(C)C(=O)C42CN(c3nnnn3C)C2)cc1NS(C)(=O)=O [Example 553, N-(5-(7′-Fluoro-3′-methyl-1-(1-methyl-1H-tetrazol-5-yl)-2′-oxo-2′,3′-dihydrospiro[azetidine-3,1′-pyrrolo[2,3-c]quinolin]-8′-yl)-2-(2-(isopropylamino)ethoxy)pyridin-3-yl)methanesulfonamide]",> 100
6,CC(C)NCCOc1ncc(-c2cc3c4c(cnc3cc2F)N(C)C(=O)C42CN(S(=O)(=O)c3ccccc3)C2)cc1NS(C)(=O)=O [Example 515],> 100
7,"CN1C(=O)C2(CCC2)c2c1cnc1ccc(-c3cnc(N4CCC(C)(N5CCCCC5)C4)c(NS(C)(=O)=O)c3)cc21 (racemic) [Example 353, (rac)-N-(5-(3′-Methyl-2′-oxo-2′,3′-dihydrospiro[cyclobutane-1,1′-pyrrolo[2,3-c]quinolin]-8′-yl)-2-(3-methyl-3-(piperidin-1-yl)pyrrolidin-1-yl)pyridin-3-yl)methanesulfonamide hydrochloride]",> 100
8,"CC(C)NCCOc1ncc(-c2cc3c(cc2F)ncc2c3[C@]3(C[C@@H](c4cc[nH]c(=O)c4)C3)C(=O)N2C)cc1NS(C)(=O)=O [Example 445, trans-N-(5-(7′-Fluoro-3′-methyl-2′-oxo-3-(2-oxo-l,2-dihydropyridin-4-yl)-2′,3′-dihydrospiro[cyclobutane-1,1′-pyrrolo[2,3-c]quinolin]-8′-yl)-2-(2-(isopropylamino)ethoxy)pyridin-3-yl)methanesulfonamide]",> 100
9,"CN1C(=O)C2(CCC2)c2c1cnc1cc(F)c(-c3cnc(OCCNC4CC4)c(NS(C)(=O)=O)c3)cc21 [Example 376, N-(2-(2-(Cyclopropylamino)ethoxy)-5-(7′-fluoro-3′-methyl-2′-oxo-2′,3′-dihydrospiro[cyclobutane-1,1′-pyrrolo[2,3-c]quinolin]-8′-yl)pyridin-3-yl)methanesulfonamide hydrochloride]",1 to 100
